# Measured values as given in patent US9884854B2, “N-[(pyrimidinylamino)propanyl]-and N[(pyrazinylamino)proppanyl]arylcarboxamides” (Boehringer Ingelheim International GmbH, priority 2016, dated 2018).
# System: human MDR1 P-gp
# Assay: Assay D: efflux in MDCK cells transfected with the human MDR1 gene
# Assay type: in vitro ADME, canine
# Details: dog; MDCK-MDR1 monolayers, pH 7.4, 37° C.; read-out: MDCK efflux ratio (BA/AB)
# Description: The MDCK assay provides information on the potential of a compound to pass the blood brain barrier. Permeability measurements across polarized, confluent MDCK-MDR1 cell monolayers grown on permeable filter supports are used as an in vitro absorption model: apparent permeability coefficients (PE) of the compounds across the MDCK-MDR1 cell monolayers are measured (pH 7.4, 37° C.) in apical-to-basal (AB) and basal-to-apical (BA) transport direction. The AB permeability (PEAB) represents drug absorption from the blood into the brain and the BA permeability (PEBA) drug efflux from the brain back into the blood via both, passive permeability as well as active transport mechanisms mediated by efflux and uptake transporters that are expressed on the MDCK-MDR1 cells, predominantly by the overexpressed human MDR1 P-gp. Identical or similar permeabilities in both transport directions indicate passive permeation, vectorial permeability points to additional active transport mechanisms. Higher PEBA than PEAB (PEBA/PEAB>5) indicates the involvement of active efflux mediated by MDR1 P-gp, which might compromises the goal to achieve sufficient brain exposure. Therefore this assay provides valuable support for selection of compounds applicable for further in vivo testing. High permeability not limited by efflux at the blood brain barrier is a favourable characteristic for compounds that are to be used for drugs acting primarily in the CNS
# D. Assessment of Efflux in Madin-Darby Canine Kidney (MDCK) Cells Transfected with the Human MDR1 Gene
# Apparent permeability coefficients (PE) of the compounds across the MDCK-MDR1 cell monolayers are measured (pH 7.4, 37° C.) in apical-to-basal (AB) and basal-to-apical (BA) transport direction. AB permeability (PEAB) represents drug absorption from the blood into the brain and BA permeability (PEBA) drug efflux from the brain back into the blood via both passive permeability as well as active transport mechanisms mediated by efflux and uptake transporters that are expressed on the MDCK-MDR1 cells, predominantly by the overexpressed human MDR1 P-gp. The compounds are assigned to permeability/absorption classes by comparison of the AB permeabilities with the AB permeabilities of reference compounds with known in vitro permeability and oral absorption in the human. Identical or similar permeabilities in both transport directions indicate passive permeation, vectorial permeability points to additional active transport mechanisms. Higher PEBA than PEAB indicates the involvement of active efflux mediated by MDR1 P-gp. Active transport is concentration-dependently saturable.
# MDCK-MDR1 cells (1-2×10e5 cells/1 cm2 area) are seeded on filter inserts (Costar transwell polycarbonate or PET filters, 0.4 μm pore size) and cultured (DMEM) for 7 days. Subsequently, the MDR1 expression is boosted by culturing the cells with 5 mM sodium butyrate in full medium for 2 days. Compounds are dissolved in appropriate solvent (like DMSO, 1-20 mM stock solutions). Stock solutions are diluted with HTP-4 buffer (128.13 mM NaCl, 5.36 mM KCl, 1 mM MgSO4, 1.8 mM CaCl2, 4.17 mM NaHCO3, 1.19 mM Na2HPO4×7H2O, 0.41 mM NaH2PO4×H2O, 15 mM HEPES, 20 mM glucose, 0.25% BSA, pH 7.4) to prepare the transport solutions (0.1-300 μM compound, final DMSO<=0.5%). The transport solution (TL) is applied to the apical or basolateral donor side for measuring A-B or B-A permeability (3 filter replicates), respectively. The receiver side contains the same buffer as the donor side. Samples are collected at the start and end of experiment from the donor and at various time intervals for up to 2 hours also from the receiver side for concentration measurement by HPLC-MS/MS or scintillation counting. Sampled receiver volumes are replaced with fresh receiver solution.
row,efflux ratio,SMILES
1,< 3,CCN(C(=O)c1ccc(F)cc1-n1nccn1)[C@@H](C)CNc1ncc(C(F)(F)F)cn1 [Example 2]
2,< 3,CCN(C(=O)c1ccc(F)c(F)c1-n1nccn1)[C@@H](C)CNc1ncc(C(F)(F)F)cn1 [Example 4]
3,< 3,CCN(C(=O)c1cc(F)ccc1-n1nccn1)[C@@H](C)CNc1ncc(C(F)(F)F)cn1 [Example 5]
4,3 to 5,CCN(C(=O)c1cc(C#N)ccc1-n1nccn1)[C@@H](C)CNc1ncc(C(F)(F)F)cn1 [Example 8]
5,< 3,CCN(C(=O)c1cc(F)cnc1-n1nccn1)[C@@H](C)CNc1ncc(C(F)(F)F)cn1 [Example 10]
6,3 to 5,CCN(C(=O)c1cccc(F)c1-n1nccn1)[C@@H](C)CNc1cnc(C(F)(F)F)cn1 [Example 24]

# The next lines start with the molecule.
row,SMILES,efflux ratio
1,CCN(C(=O)c1cccc(F)c1-c1ncccn1)[C@@H](C)CNc1ncc(C(F)(F)F)cn1 [Example 11],3 to 5
2,CCN(C(=O)c1c(F)cccc1-c1ncccn1)[C@@H](C)CNc1ncc(C(F)(F)F)cn1 [Example 13],< 3
3,CCN(C(=O)c1ccccc1-c1noc(C)n1)[C@@H](C)CNc1ncc(C(F)(F)F)cn1 [Example 14],< 3
4,CCN(C(=O)c1cc(F)ccc1-c1ncccn1)[C@@H](C)CNc1ncc(C(F)(F)F)cn1 [Example 15],< 3
5,CCN(C(=O)c1ccc(F)cc1-c1ncccn1)[C@@H](C)CNc1ncc(C(F)(F)F)cn1 [Example 16],< 3
6,CCN(C(=O)c1ncccc1-c1ccccc1)[C@@H](C)CNc1ncc(C(F)(F)F)cn1 [Example 19],< 3
7,CCN(C(=O)c1cncnc1-c1ccccc1)[C@@H](C)CNc1ncc(C(F)(F)F)cn1 [Example 20],< 3
8,CCN(C(=O)c1nccnc1-c1ccccc1)[C@@H](C)CNc1ncc(C(F)(F)F)cn1 [Example 21],< 3
9,CCN(C(=O)c1ccccc1-n1nccn1)[C@@H](C)CNc1cnc(C(F)(F)F)cn1 [Example 22],3 to 5
10,CCN(C(=O)c1ccc(F)cc1-c1nnc(C)o1)[C@@H](C)CNc1cnc(C(F)(F)F)cn1 [Example 23],3 to 5
